Test results from paper PMC8804135 (Neurotherapeutics, 2021).
Numbered stars: 1 amine (or outer) side, 2 acyl side, 3 side chain; on linkers, the order of the positions; unused ones are H or OH. Bridge positions count the residues as written; N and C are the ends. Square brackets hold non-standard residues; d marks the D form. Peptide text beside a SMILES is read from it. dAbu(3S-yl) = C[C@@H]([C@@H](N[*:1])C(=O)[*:2])[*:3]; pGlu = O=C1CC[C@@H](C(=O)O)N1

Columns and labels:
[1] = In vitro stability in brain plasma; format: in vitro ADME, rat; settings: Sprague-Dawley, rat, other tissue homogenate, pH 7.4
Description: The method to study the stability of peptides in brain plasma is described in the Supplementary material. […]
receptor-2-selective agonist reduces acute food intake
Anneke Kuipers1, Márta Balasko2, Erika Pétervári2, Andreas Koller3,4, Susanne M.
Brunner3,4, Gert N. Moll1,5, Barbara Kofler 3*
In vitro stability in brain plasma
Sprague dawley rat brain lyophilized powder was purchased from MyBioSource (San Diego, USA). One gram brain powder was reconstituted in 10 ml PBS, 0.5 ml 2 M Tris (pH=8), 100 µl Triton X -100 and 10 mg SDS. The solution was centrifuged and the supernatant was collected, aliquoted and stored at -20 °C until usage. To assess the stability, 10 µM GAL-(1-15) and 10 µM M89b were incubated in 1% brain plasma buffered with 200 mM phosphate buffer (pH 7.4) at 37°C for up to 6 hours. At various time points […]
20 µl 100% ACN. Samples were centrifuged and kept on ice. Full-length peptides were quantified by using a C12 column (C12 RP 250 x 4.60 mm column, Phenomenex) on a JASCO HPLC system and applying a gradient of 20 -90% ACN in 0.1% TFA for 30 minutes.
Peptides were detected at 280 nm. A280 areas in chromatograms of the corresponding GAL-(1-15) and M89b full-length peptide peaks were used to determine the amount of peptide left after incubation with cerebrospinal fluid at the different time points. Peptide peaks were determined using JASCO-Borwin Chromatography software (v1.50).

[2] = In vitro stability in rat serum; format: in vitro ADME; settings: rat, serum, pH 7.4
Description: At various time points (0, 30, 90, 270, and 1410 min), 180 µl of samples were quenched with 10 µl 10% TFA and 20 µl 100% ACN. Samples were centrifuged and kept on ice. The amount of full-length peptides in the serum was analyzed using a C12 column (C12 RP 250 × 4.60 mm column, Phenomenex) on a JASCO HPLC system and applying a gradient of 10–90% ACN in 0.1% TFA for 45 min. Peptides were detected at 280 nm. A280 areas in chromatograms of the corresponding GAL-(1–15) and M89b full-length peptide peaks were used to determine the amount of peptide left after incubation with 5% rat serum at the different time points. Peptide peaks were determined using JASCO-Borwin Chromatography software (v1.50).

[3] = biological target: T1, GAL2R (Homo sapiens, UniProt O43603); assay: Fluo-4 Direct calcium assay (Ca efflux) in HEK293 cells overexpressing GAL2R; format: cell-based; settings: Table 3; HEK293 cells stably overexpressing GAL2R; Fluo-4, from 10 µM; (average) ratio, (n) in cell = number of assays; NA = ratio above 1000
T1 sequence (O43603 1-387): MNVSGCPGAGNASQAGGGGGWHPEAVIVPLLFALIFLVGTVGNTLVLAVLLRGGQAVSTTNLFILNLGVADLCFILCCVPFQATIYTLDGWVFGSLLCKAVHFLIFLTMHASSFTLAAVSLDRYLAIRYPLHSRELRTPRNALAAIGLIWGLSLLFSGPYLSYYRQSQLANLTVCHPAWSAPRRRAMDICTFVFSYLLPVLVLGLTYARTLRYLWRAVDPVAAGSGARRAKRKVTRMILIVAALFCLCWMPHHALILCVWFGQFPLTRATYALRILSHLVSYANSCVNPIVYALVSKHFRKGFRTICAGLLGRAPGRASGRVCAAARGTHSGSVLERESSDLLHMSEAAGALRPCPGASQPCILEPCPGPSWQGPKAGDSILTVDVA
Description: Calcium efflux was measured by using a Fluo-4 Direct Calcium Assay purchased from Thermo Fisher Scientific. HEK293 cells with stable overexpression of GAL2R (HEKR2) (kindly provided by Harald Dargatz, Molecular, Cellular and Pharmacobiology Section, Institute of Pharmaceutical Biology, University of Bonn, 53,115 Bonn, Germany) were used for analysis of the lanthipeptides. HEKR2 cells were seeded in a 96-well plate and grown overnight in DMEM supplemented with 10% FBS, 1% penicillin–streptomycin, 100 µg/ml Normocin, and 500 µg/ml G418 at 37 °C, 5% CO2 in a humidified incubator.
The next day, when the cells were nearly confluent, an equal amount of 2 × Fluo-4 Direct™ calcium reagent loading solution, containing 5 mM probenecid, was added to the wells, and the plate was incubated for 1 h at 37 °C. A serial 3 × dilution of the agonist compound in water was made, and 10 µl of the serial dilutions was applied to the cells in duplicate. The starting concentration of agonist in the assay was 10 µM. After 1–2 h of incubation at room temperature, the fluorescence was measured with excitation at 485/20 nm and emission at 528/20 nm with a Synergy HT Biotek reader.

## CC(C)C[C@H](NC(=O)[C@H](CC(C)C)NC(=O)[C@H](Cc1ccc(O)cc1)NC(=O)CNC(=O)[C@H](C)NC(=O)[C@H](C)NC(=O)[C@H](CC(N)=O)NC(=O)[C@H](CC(C)C)NC(=O)[C@H](CC(N)=O)NC(=O)[C@H](Cc1c[nH]c2ccccc12)NC(=O)[C@@H]1CCC(=O)N1)C(=O)N[C@@H](C)C(=O)N[C@H]1C(=O)N[C@@H](Cc2c[nH]cn2)C(=O)N[C@@H](C)C(=O)N[C@H](C(=O)NCC(=O)O)CS[C@H]1C [Variant M89b, G1pE-T3N-S6A-G12A-methyllanthionine[13–16]-galanin-(1–17)] ([pGlu]WNLNAAGYLLA[dAbu(3S-yl)]HACG-OH; thioether 13-16; C-terminus assumed)
[1]
  remaining at 6 h, 10 µM: ~85%
[2]
  half-life at 10 µM: > 24 h
  metabolised at 23.5 h, 10 µM: 40%
  remaining at 23.5 h, 10 µM: ~60%
[3]
  EC50 ratios to Gal-(1-15), GAL2R Ca-efflux: 1.4 (3)
